The test system of assay [1] is Aβ1-40 secreted from HEK293 cells stably expressing wildtype human APP695 protein (HEK-APPwt cells). The experiment in a line: Aβ Cell Based Assay (Aβ1-40 secretion, ELISA). Particulars: Homo sapiens, HEK293, 6 h, 6 hours incubation, reduction of Aβ1-40 secretion. The method, then: Aβ Cell Based Assay Procedure
In the following assay, the proteolytic activity of BACE in cells exposed to varying concentrations of a compound of interest is measured by observing the amount of Aβ1-40 secreted from HEK293 cells (Human Embryonic Kidney epithelial cell line) stably expressing wildtype human APP695 protein (HEK-APPwt cells).
HEK-APPwt cells were grown in high glucose DMEM (Dulbecco's Modified Eagles Medium SIGMA Cat.# D5796) supplemented with 25 mM HEPES (4-(2-hydroxyethyl)-1-piperazineethanesulfonic acid) (pH 7.4) (Invitrogen Cat.# 15630-114), 0.1 mM NEAA (Non-essential Amino Acids) (BioWhittaker Cat. #13-114E), 10% fetal bovine serum (SIGMA Cat. #F4135) and 250 μg/mL hygromycin (Invitrogen Cat. #10687-010) in T-225 flasks at 37° C. with 5% CO2 and humidity control.
Test compounds were initially prepared in DMSO and diluted with DMEM media containing 2% FBS (Fetal bovine serum). Ten standard compound solutions were prepared having a range of concentrations. The standard compound solutions were used to determine the EC50 of the test compound. The range of concentrations chosen may depend on the compound's predicted potency.
To prepare the cells for the assay, a flask containing HEK-APPwt cells were trypsinized briefly (1 mL trypsin), and once the cells detached, 4 mL of 10% FBS-DMEM was added to the flask. The detached cells were centrifuged at 900 rpm for 5 min to form a pellet.
The HEK-APPwt cell pellet was re-suspended with 10 mL DMEM media containing 2% FBS. 80 μL of the cell suspension was added to each well of a 96-well cell culture plate to give 100×10^4cells/ml. 10 μL of a standard compound solution was added to each well of the 96-well cell culture plate followed by 10 μL of Alamar blue solution. The cells were incubated at 37° C. in a 5% CO2 incubator for 6 hours.
At the end of the incubation, the plates were removed from incubator, and the supernatant was collected. A≈1-40 concentration in the medium was measured by using a commercial Aβ1-X ELISA kit (IBL, Japan Cat. #27729). Briefly, the ELISA plates were coated with an anti-human AO (N)(82E1) mouse IgG monoclonal antibody. A horseradish peroxidase conjugated anti-human Aβ11-28 mouse IgG monoclonal antibody was used for detection. The cell culture supernatant was diluted with EIA buffer +protease inhibitors (kit buffer containing protease inhibitors (1 mL PI/30 mL buffer)). A 100 μL aliquot of the diluted supernatant was added to each well of the ELISA plate and incubated for 6 hrs at 4° C. The ELISA plate was washed 8 times with phosphate buffered saline (PBS) containing 0.05% Tween 20.
A 100 μL of detection antibody was then added and incubated for 1 hour at 4° C. The plate was washed 8 times with PBS buffer containing 0.05% Tween 20 followed by addition of 100 μL of the chromogen tetramethylbenzidine (TMB). The plate was incubated in the dark at room temperature for about 30 min and a stop solution (1N H2SO4) was added.
The intensity of the color developed was measured at 450 nm. The optical density at 450 nm (OD450) is proportional to the concentration of human Aβ1-40 secreted by the cell. As a reference, N-[N-(3,5-difluorophenacetyl-L-alanyl)]-S-phenylglycine t-butyl ester (DAPT, a γ-secretase inhibitor) was used to indicate 100% inhibition of BACE activity. Thus, the assay measures the ability of a compound of interest to reduce Aβ1-40 secretion. For select compounds, compound potency is reported in Table 3 as the EC50 by calculating the percent inhibition at all concentration levels and the data were fit with non-linear curve fitting algorithm using GraphPad Prism.
Background: An ELISA detects its analyte on a solid surface through an enzyme-linked reagent.

The target of another assay is T1, BACE-1 enzyme (Homo sapiens, UniProt P56817).
T1 construct: purchased R & D Systems 931AS
T1 sequence (P56817 46-457 limits assumed): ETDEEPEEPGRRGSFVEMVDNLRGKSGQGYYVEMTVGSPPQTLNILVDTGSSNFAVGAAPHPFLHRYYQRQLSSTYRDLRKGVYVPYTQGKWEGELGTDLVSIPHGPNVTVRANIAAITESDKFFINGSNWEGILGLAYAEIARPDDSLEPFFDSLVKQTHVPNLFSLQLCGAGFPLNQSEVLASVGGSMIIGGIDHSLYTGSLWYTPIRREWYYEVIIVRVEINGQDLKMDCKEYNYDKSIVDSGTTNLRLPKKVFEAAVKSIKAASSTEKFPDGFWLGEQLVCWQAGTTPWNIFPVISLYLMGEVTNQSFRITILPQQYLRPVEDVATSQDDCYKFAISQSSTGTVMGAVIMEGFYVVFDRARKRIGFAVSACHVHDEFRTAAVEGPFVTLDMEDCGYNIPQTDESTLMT
Put plainly: BACE Fluorescence Resonance Energy Transfer (FRET) Assay. The format is biochemical. The following applies: pH 4-4.5, 30 min pre-incubation, about 1.5 hours reaction. The essentials:
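Fluorescence (ex 540, em 585 nm) after ~1.5 h room-temperature cleavage of a quenched rhodamine peptide tracks BACE-1 activity. Enzyme and compound first sit 30 min in pH 4-4.5 acetate buffer with CHAPS, Triton X-100, EDTA, 7.5% DMSO. Values given as IC50 or % inhibition.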

Among the data in patent US20120101093A1, “SUBSTITUTED IMIDAZO[1,2-A]PYRIDINE DERIVATIVES, PHARMACEUTICAL COMPOSITIONS, AND METHODS OF USE AS BETA-SECRETASE INHIBITORS” (HIGH POINT PHARMACEUTICALS, LLC, priority 2009, published 2012) are EC50 and IC50 values, retold here.

Structures can show the parent of a compound that is named as a salt.

As to `Cc1cccc2nc(C(=O)Nc3nc4cc(-c5cccc(C(F)(F)F)c5)ccc4[nH]3)cn12` [Example 1, 5-Methyl-imidazo[1,2-a]pyridine-2-carboxylic acid[5-(3-trifluoromethyl-phenyl)-1H-benzoimidazol-2-yl]-amide], the concentration giving a half-maximal response (EC50) in assay [1] was determined as 0.53 µM. The compound also registered a half-inhibitory concentration (IC50) on BACE-1 enzyme of 0.32 µM.
On the same counts, the results for `O=C(Nc1nc2cc(-c3cccc(C(F)(F)F)c3)ccc2[nH]1)c1cn2c(OC3CCNCC3)cccc2n1` [Example 2, 5-(Piperidin-4-yloxy)-imidazo[1,2-a]pyridine-2-carboxylic acid[5-(3-trifluoromethyl-phenyl)-1H-benzoimidazol-2-yl]-amide trihydrochloride] are 6.4 µM and 0.98 µM.
With `CN1CCC(Oc2cccc3nc(C(=O)Nc4nc5cc(-c6cccc(C(F)(F)F)c6)ccc5[nH]4)cn23)CC1` [Example 3, 5-(1-Methyl-piperidin-4-yloxy)-imidazo[1,2-a]pyridine-2-carboxylic acid[5-(3-trifluoromethyl-phenyl)-1H-benzoimidazol-2-yl]-amide], the EC50 in assay [1] is 4.02 µM. The same compound returned a 50% inhibitory concentration (IC50) against BACE-1 enzyme of 1.15 µM.
In turn, `CN1CCN(Cc2cccc3nc(C(=O)Nc4nc5cc(-c6cccc(C(F)(F)F)c6)ccc5[nH]4)cn23)CC1` [Example 10, 5-(4-Methyl-piperazin-1-ylmethyl)-imidazo[1,2-a]pyridine-2-carboxylic acid [5-(3-trifluoromethyl-phenyl)-1H-benzoimidazol-2-yl]-amide] had a concentration giving a half-maximal response (EC50) in assay [1] of 2.53 µM. For the same compound, half-maximal inhibition at BACE-1 enzyme (IC50) was put at 0.3 µM.
On the same counts, the results for `Cc1cccc2nc(C(=O)Nc3nc4ccc(-c5cccc(C(F)(F)F)c5)cc4n3C)cn12` [Example 11, 5-Methyl-imidazo[1,2-a]pyridine-2-carboxylic acid [1-methyl-6-(3-trifluoromethyl-phenyl)-1H-benzoimidazol-2-yl]-amide] are 8.83 µM and 0.55 µM.
`Cc1cccc2nc(C(=O)Nc3nc4cc(OCc5ccccc5)ccc4[nH]3)cn12` [Example 12, 5-Methyl-imidazo[1,2-a]pyridine-2-carboxylic acid (5-benzyloxy-1H-benzoimidazol-2-yl)-amide] yielded an EC50 in assay [1] of 2.01 µM. At BACE-1 enzyme, this compound showed an IC50 of 0.2 µM.
In the same order, the values of `Cc1cccc2nc(C(=O)Nc3nc4cc(OCc5ccc(C(F)(F)F)cc5)ccc4[nH]3)cn12` [Example 18, 5-Methyl-imidazo[1,2-a]pyridine-2-carboxylic acid [5-(4-trifluoromethyl-benzyloxy)-1H-benzoimidazol-2-yl]-amide] are 0.42 µM and 0.16 µM.
On the same counts, the results for `Cc1cccc2nc(C(=O)Nc3nc4cc(-c5ccc(C(F)(F)F)cc5)ccc4[nH]3)cn12` [Example 23, 5-Methyl-imidazo[1,2-a]pyridine-2-carboxylic acid [5-(4-trifluoromethyl-phenyl)-1H-benzoimidazol-2-yl]-amide] are 0.66 µM and 0.27 µM.
The compound `Cc1cccc2nc(C(=O)Nc3nc4cc(OCc5cccc(C(F)(F)F)c5)ccc4[nH]3)cn12` [Example 26, 5-Methyl-imidazo[1,2-a]pyridine-2-carboxylic acid [5-(3-trifluoromethyl-benzyloxy)-1H-benzoimidazol-2-yl]-amide] returned an EC50 in assay [1] of 1.21 µM. The compound also displayed an IC50 at BACE-1 enzyme of 0.42 µM.
In assay [1], `Cc1cccc2nc(C(=O)Nc3nc4cc(-c5cccc(Cl)c5)ccc4[nH]3)cn12` [Example 27, 5-Methyl-imidazo[1,2-a]pyridine-2-carboxylic acid [5-(3-chloro-phenyl)-1H-benzoimidazol-2-yl]-amide] showed an EC50 of 1.45 µM. It took 0.5 µM to reach half-maximal inhibition against BACE-1 enzyme (IC50).
Compound `Cc1cccn2cc(C(=O)Nc3nc4cc(-c5cccc(OC(F)(F)F)c5)ccc4[nH]3)nc12` [Example 28, 8-Methyl-imidazo[1,2-a]pyridine-2-carboxylic acid [5-(3-trifluoromethoxy-phenyl)-1H-benzoimidazol-2-yl]-amide] yielded an EC50 in assay [1] of 2.13 µM. In addition, the concentration for half-maximal inhibition (IC50) against BACE-1 enzyme turned out to be 0.32 µM.
On to `Cc1cccn2cc(C(=O)Nc3nc4cc(-c5cccc(C(F)(F)F)c5)ccc4[nH]3)nc12` [Example 32, 8-Methyl-imidazo[1,2-a]pyridine-2-carboxylic acid [5-(3-trifluoromethyl-phenyl)-1H-benzoimidazol-2-yl]-amide], for which, in assay [1], the EC50 is 1.36 µM. On BACE-1 enzyme, the half-inhibitory concentration (IC50) turned out to be 0.52 µM.
Compound `CCOc1cccc(-c2ccc3[nH]c(NC(=O)c4cn5c(C)cccc5n4)nc3c2)c1` [Example 35, 5-Methyl-imidazo[1,2-a]pyridine-2-carboxylic acid [5-(3-ethoxy-phenyl)-1H-benzoimidazol-2-yl]-amide] registered an EC50 in assay [1] of 2.3 µM. The midpoint of inhibition against BACE-1 enzyme, the IC50, lay at 0.82 µM.
On the same counts, the results for `Cc1cccc2nc(C(=O)Nc3nc4cc(OCc5ccccc5C(F)(F)F)ccc4[nH]3)cn12` [Example 42, 5-Methyl-imidazo[1,2-a]pyridine-2-carboxylic acid [5-(2-trifluoromethyl-benzyloxy)-1H-benzoimidazol-2-yl]-amide] are 3.45 µM and 0.38 µM.
On the same counts, the results for `Cc1cccc2nc(C(=O)Nc3nc4cc(OCc5cc(F)cc(C(F)(F)F)c5)ccc4[nH]3)cn12` [Example 43, 5-Methyl-imidazo[1,2-a]pyridine-2-carboxylic acid [5-(3-fluoro-5-trifluoromethyl-benzyloxy)-1H-benzoimidazol-2-yl]-amide] are 0.58 µM and 0.3 µM.
On the same counts, the results for `Cc1cccc2nc(C(=O)Nc3nc4cc(-c5cccc(OC(F)(F)F)c5)ccc4[nH]3)cn12` [Example 46, 5-Methyl-imidazo[1,2-a]pyridine-2-carboxylic acid [5-(3-trifluoromethoxy-phenyl)-1H-benzoimidazol-2-yl]-amide] are 0.63 µM and 0.26 µM.
In assay [1], `Cc1cccc2nc(C(=O)Nc3nc4cc(-c5ccc(Cl)c(C(F)(F)F)c5)ccc4[nH]3)cn12` [Example 47, 5-Methyl-imidazo[1,2-a]pyridine-2-carboxylic acid [5-(4-chloro-3-trifluoromethyl-phenyl)-1H-benzoimidazol-2-yl]-amide] came in with a half-maximal effective concentration (EC50) of 0.08 µM. The IC50 against BACE-1 enzyme was found to be 0.42 µM.
In the case of `Cc1cccc2nc(C(=O)Nc3nc4cc(-c5ccc(F)c(C(F)(F)F)c5)ccc4[nH]3)cn12` [Example 48, 5-Methyl-imidazo[1,2-a]pyridine-2-carboxylic acid [5-(4-fluoro-3-trifluoromethyl-phenyl)-1H-benzoimidazol-2-yl]-amide], in assay [1], the midpoint of the response, the EC50, lay at 0.18 µM. In addition, the IC50 against BACE-1 enzyme turned out to be 0.49 µM.
In assay [1], `O=C(Nc1nc2cc(OCc3ccc(C(F)(F)F)cc3)ccc2[nH]1)c1cn2c(C(F)(F)F)cccc2n1` [Example 49, 5-Trifluoromethyl-imidazo[1,2-a]pyridine-2-carboxylic acid [5-(4-trifluoromethyl-benzyloxy)-1H-benzoimidazol-2-yl]-amide] displayed an EC50 of 8.76 µM. The compound further showed an IC50 at BACE-1 enzyme of 0.17 µM.
In the same order, the values of `Cc1cccn2cc(C(=O)Nc3nc4cc(-c5ccc(C(F)(F)F)cc5)ccc4[nH]3)nc12` [Example 50, 8-Methyl-imidazo[1,2-a]pyridine-2-carboxylic acid [5-(4-trifluoromethyl-phenyl)-1H-benzoimidazol-2-yl]-amide] are 4.41 µM and 0.32 µM.

One may read the EC50 as the midpoint of the concentration-response curve. A lower EC50 goes with greater potency. Usually IC50 stands for the concentration at which inhibition is half-maximal. Low readings indicate inhibition by little substance, high ones a need for much substance.
